In patent US12077607B2, “Functional and therapeutic effects of PAR4 cleavage by cathepsin G” (UNIVERSITY OF UTAH RESEARCH FOUNDATION, priority 2021, dated 2024):

Experiments:
[1] = target: T1, PAR4-R68E (Homo sapiens, UniProt Q96RI0, R68E); test: PAR4 mutant calcium flux assay, HEK293T/17 cells, R68E; format: cell-based; settings: 100 nM vorapaxar
T1 construct: Flag; expressed in transfected cells; host or cells: HEK293T/17 (ATCC CRL-11268)
T1 sequence (Q96RI0 18-385 R68E): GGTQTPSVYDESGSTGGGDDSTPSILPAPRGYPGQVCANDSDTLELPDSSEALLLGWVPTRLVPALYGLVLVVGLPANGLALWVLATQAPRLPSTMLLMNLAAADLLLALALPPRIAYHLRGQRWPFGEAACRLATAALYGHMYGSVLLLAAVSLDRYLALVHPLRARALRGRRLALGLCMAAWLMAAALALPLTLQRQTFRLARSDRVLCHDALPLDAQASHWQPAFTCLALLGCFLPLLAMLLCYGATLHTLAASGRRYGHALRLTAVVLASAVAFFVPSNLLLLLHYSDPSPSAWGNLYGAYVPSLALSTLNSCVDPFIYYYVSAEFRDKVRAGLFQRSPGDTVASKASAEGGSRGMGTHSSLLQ
Procedure: PAR4 mutant calcium flux assays. Using Quikchange Lightning Site-Directed mutagenesis (Agilent) per manufacturing instructions, pCMV-Flag-PAR4-S66E, pCMV-Flag-PAR4-S67E, and pCMV-Flag-PAR4-R68E were generated from mutation of pCMV-Flag-PAR4 and confirmed by sequencing (University of Utah DNA Sequencing Core). Prior to transfection, HEK293T/17 cells (ATCC CRL-11268) were seeded at 4.5×10^4/mL. The following day, cells were transfected with the plasmid of interest using Lipofectamine 2000 (Invitrogen, Carlsbad, CA, USA). Twenty-four hours after transfection, media was removed and replaced with Optimem w/Glutamax (Gibco, Carlsbad, CA, USA) containing vorapaxar (100 nM) (Cayman Chemical, Ann Arbor, MI, USA) and Fura2-QBT (Molecular Devices). Following incubation for 1 hour at 37° C., plate was placed in the Flexstation 3 (Molecular Devices) where agonists, Tyrode's Buffer, cathepsin G (2.5 μM), or α-thrombin (1.5 U/mL), were injected onto cells and calcium mobilization was monitored and recorded.

[2] = test system: rat washed platelets; test: Platelet aggregation of rat washed platelets; format: cell-based; settings: 1 U/mL human thrombin, 1 μM human CatG or 1 mM RA-11mer
Procedure: Platelet and neutrophil isolation. Platelets and neutrophils were isolated as previously described (Yost et al., J Clin Invest. 2016; 126(10):3783-3798). Platelet isolation from dogs, rats and mice was approved by the IACUC. Platelet activation and aggregation were performed as previously described (Manne et al., Blood. 2020; 136(11): 1317-1329).
Platelet isolation, aggregation, and activation. Human washed platelets were prepared and resuspended in Tyrode's Buffer at 2×10^8/mL as described (Edelstein et al., Nat Med. 2013; 19(12):1609-1616). For human and dog platelet comparisons, platelets were prepared using a modified human platelet protocol with final concentrations of […] (Cayman Chemical, Ann Arbor, MI, USA) used during centrifugation steps. Centrifugations after Tyrode's washes was decreased to 1,250×g as described in Cremer et al., PLOS One. 2019; 14(11): e0224891. Platelet aggregation was measured under stirring conditions at 37° C. using a PAP-8E aggregometer after treatment with the following agonists: arachidonic acid (Bio/Data Corporation, Horsham, PA, USA), cathepsin G, elastase, proteinase 3 (Athens Research Group), α-thrombin (Sigma, St. Louis, MO, USA), PAR-1 peptide (SFLLRN) (GL Biochem, China). P-selectin and PAC-1 were measured as previously described (Yee et al., J Thromb Haemost. 2006; 4(9):2043-2050; Tourdot et al., Arterioscler Thromb Vasc Biol. 2014; 34(12):2644-2650).

[3] = target: T2, PAR4-C (SEQ ID NO: 8) (Homo sapiens, UniProt Q96RI0); test: PAR4 peptide cleavage analysis by LC-MS/MS, PAR4-C; format: biochemical; settings: CatG 400 nM, 37° C., 15 minutes; thrombin
T2 construct: purchased BIOMATIK (Wilmington, DE, USA); host or cells: chemical synthesis
T2 sequence (Q96RI0 57-78 limits assumed): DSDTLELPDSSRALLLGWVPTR
Procedure: PAR-4 Peptide and Cleavage Analysis. PAR4 synthetic peptides were incubated with protease, snapped frozen, and sent for mass spectrometry analysis. PAR-4B ([…]; SEQ ID NO: 7) and PAR-4C ([…]; SEQ ID NO: 8) were synthesized by BIOMATIK (Wilmington, DE, USA). PAR4-B and PAR4-C were incubated with vehicle, thrombin (100 nM) or cathepsin G (400 nM) at 37° C. for 15 minutes to an hour depending on the experimental condition. After digestion with the indicated protease, reactions were snapped frozen and sent to the University of Arizona, Analytical and Biological Mass Spectrometry Core Facility (Tucson, Arizona) for analysis. LC-MS/MS analysis was done on a Q Exactive Plus mass spectrometer (Thermo Fisher Scientific, San Jose, CA) equipped with an EASY-Spray nanoESI source. […] The peptide identification results were further analyzed with Scaffold Q+S v 4.8.7 (Proteome Software Inc., Portland OR), a program that relies on various search engine results (i.e.: Sequest, X!Tandem, MASCOT) and which uses Bayesian statistics to reliably identify more spectra9.

| Substance | thrombin-induced calcium flux, R68E mutant compared with WT ([1]; thrombin 1.5 U/mL) | platelet aggregation, species comparison: rats [2] | cleavage of PAR4-C peptide [3] | CatG-induced calcium flux, R68E mutant compared with WT ([1]; CatG 2.5 μM, P<0.001) |
| --- | --- | --- | --- | --- |
| thrombin | None of the PAR4 mutants were significantly different than WT | induced platelet aggregation | failed to cleave | – |
| CatG: serine protease cathepsin G released by activated neutrophils | – | only induced platelet aggregation in humans and dogs | cleavage between Ser67 (S67)-Arg68 (R68) | significantly less calcium flux than WT |
